According to ChEMBL document CHEMBL1157371, “Prevalence, characteristics, and molecular epidemiology of macrolide and fluoroquinolone resistance in clinical isolates of Streptococcus pneumoniae at five tertiary-care hospitals in Korea” (2007):
≈ marks a conversion by molar mass, not a printed value.

Experiments:
Format in all cases: functional
Streptococcus pneumoniae [1] = experiment: Antibacterial activity against erythromycin-resistant Streptococcus pneumoniae isolates assessed as percent resistant isolates by broth microdilution method
Streptococcus pneumoniae [2] = experiment: Antibacterial activity against erythromycin-resistant Streptococcus pneumoniae isolates by broth microdilution method
Streptococcus pneumoniae [3] = experiment: Antibacterial activity against erythromycin-resistant Streptococcus pneumoniae isolates assessed as percent susceptible isolates by broth microdilution method
Streptococcus pneumoniae [4] = experiment: Antibacterial activity against erythromycin-resistant Streptococcus pneumoniae isolate-4 with gyrA Ser81Phe, ParC Lys137Asn and parE Ile460Val, Asp435Asn mutation by broth microdilution method
Streptococcus pneumoniae [5] = experiment: Antibacterial activity against erythromycin-resistant Streptococcus pneumoniae isolate-6 with parE Ile460Val mutation by broth microdilution method
Streptococcus pneumoniae [6] = experiment: Antibacterial activity against erythromycin-resistant Streptococcus pneumoniae isolate-7 with parE Ile460Val mutation by broth microdilution method
Streptococcus pneumoniae [7] = experiment: Antibacterial activity against erythromycin-resistant Streptococcus pneumoniae isolate-1 with gyrA Glu85Lys, ParC Ser79Phe and parE Ile460Val mutation by broth microdilution method
Streptococcus pneumoniae [8] = experiment: Antibacterial activity against erythromycin-resistant Streptococcus pneumoniae isolate-3 with ParC Ser79Tyr and parE Ile460Val mutation by broth microdilution method
Streptococcus pneumoniae [9] = experiment: Antibacterial activity against erythromycin-resistant Streptococcus pneumoniae isolate-8 with parE Ile460Val mutation by broth microdilution method
Streptococcus pneumoniae [10] = experiment: Antibacterial activity against erythromycin-resistant Streptococcus pneumoniae isolate-9 with parC Asn94ser and parE Ile460Val mutation by broth microdilution method
Streptococcus pneumoniae [11] = experiment: Antibacterial activity against erythromycin-resistant Streptococcus pneumoniae isolate-2 with gyrA Ser81Phe, Ser114Gly, ParC Ser52Gly, Ser79Phe, Asn91Asp and parE Ile460Val mutation by broth microdilution method
Streptococcus pneumoniae [12] = experiment: Antibacterial activity against erythromycin-resistant Streptococcus pneumoniae isolate-5 with ParC Ser79Tyr, Lys137Asn and parE Ile460Val mutation by broth microdilution method

Compound	Activity (Streptococcus pneumoniae [1]) [%]	MIC50 (Streptococcus pneumoniae [2]) [µg/mL]	MIC90 (Streptococcus pneumoniae [2]) [µg/mL]	Percent susceptible isolates (Streptococcus pneumoniae [3]) [%]	MIC (Streptococcus pneumoniae [4]) [µg/mL]	MIC (Streptococcus pneumoniae [5]) [µg/mL]	MIC (Streptococcus pneumoniae [6]) [µg/mL]	MIC (Streptococcus pneumoniae [7]) [µg/mL]	MIC (Streptococcus pneumoniae [8]) [µg/mL]	MIC (Streptococcus pneumoniae [9]) [µg/mL]	MIC (Streptococcus pneumoniae [10]) [µg/mL]	MIC (Streptococcus pneumoniae [11]) [µg/mL]	MIC (Streptococcus pneumoniae [12]) [µg/mL]
CC(=O)NC[C@H]1CN(c2ccc(N3CCOCC3)c(F)c2)C(=O)O1 [LINEZOLID]	0	0.5 (≈ 1.48 µM)	1 (≈ 2.96 µM)	100	–	–	–	–	–	–	–	–	–
CN[C@H](CC(C)C)C(=O)N[C@H]1C(=O)N[C@@H](CC(N)=O)C(=O)N[C@H]2C(=O)N[C@H]3C(=O)N[C@H](C(=O)N[C@H](C(=O)O)c4cc(O)cc(O)c4-c4cc3ccc4O)[C@H](O)c3ccc(c(Cl)c3)Oc3cc2cc(c3O[C@@H]2O[C@H](CO)[C@@H](O)[C@H](O)[C@H]2O[C@H]2C[C@](C)(N)[C@H](O)[C@H](C)O2)Oc2ccc(cc2Cl)[C@H]1O [VANCOMYCIN]	0	0.25 (≈ 0.173 µM)	0.25 (≈ 0.173 µM)	100	–	–	–	–	–	–	–	–	–
CO/N=C(\C(=O)N[C@@H]1C(=O)N2C(C(=O)O)=C(CSc3nc(=O)c(O)nn3C)CS[C@H]12)c1csc(N)n1 [CEFTRIAXONE]	3.4	1 (≈ 1.8 µM)	2 (≈ 3.61 µM)	76.2	–	–	–	–	–	–	–	–	–
COc1c(N2C[C@@H]3CCCN[C@@H]3C2)c(F)cc2c(=O)c(C(=O)O)cn(C3CC3)c12 [MOXIFLOXACIN]	1.7	–	–	97.9	–	–	–	–	–	–	–	–	–
CC1(C)S[C@@H]2[C@H](NC(=O)[C@H](N)c3ccc(O)cc3)C(=O)N2[C@H]1C(=O)O [AMOXICILLIN]	33.2	4 (≈ 10.9 µM)	16 (≈ 43.8 µM)	40.9	–	–	–	–	–	–	–	–	–
CC[C@H]1OC(=O)[C@H](C)[C@@H](O[C@H]2C[C@@](C)(OC)[C@@H](O)[C@H](C)O2)[C@H](C)[C@@H](O[C@@H]2O[C@H](C)C[C@H](N(C)C)[C@H]2O)[C@](C)(O)C[C@@H](C)C(=O)[C@H](C)[C@@H](O)[C@]1(C)O [ERYTHROMYCIN]	80	4 (≈ 5.45 µM)	≥ 128	20	–	–	–	–	–	–	–	–	–
C[C@H]1COc2c(N3CCN(C)CC3)c(F)cc3c(=O)c(C(=O)O)cn1c23.C[C@H]1COc2c(N3CCN(C)CC3)c(F)cc3c(=O)c(C(=O)O)cn1c23.O [LEVOFLOXACIN]	3	1	2	96.2	0.008	0.008	0.064	0.032	0.064	0.064	0.004	0.008	0.004
CO/N=C(\C(=O)N[C@@H]1C(=O)N2C(C(=O)O)=C(COC(C)=O)CS[C@H]12)c1csc(N)n1 [CEFOTAXIME]	3.4	1 (≈ 2.2 µM)	2 (≈ 4.39 µM)	78.7	–	–	–	–	–	–	–	–	–
CN(C)[C@@H]1C(O)=C(C(N)=O)C(=O)[C@@]2(O)C(O)=C3C(=O)c4c(O)cccc4[C@@](C)(O)[C@H]3C[C@@H]12 [TETRACYCLINE]	81.3	32 (≈ 72 µM)	64 (≈ 144 µM)	18.3	–	–	–	–	–	–	–	–	–
CC[C@H]1OC(=O)[C@H](C)[C@@H](O[C@H]2C[C@@](C)(OC)[C@@H](O)[C@H](C)O2)[C@H](C)[C@@H](O[C@@H]2O[C@H](C)C[C@H](N(C)C)[C@H]2O)[C@](C)(OC)C[C@@H](C)C(=O)[C@H](C)[C@@H](O)[C@]1(C)O [CLARITHROMYCIN]	72.8	64 (≈ 85.6 µM)	≥ 128	23.4	–	–	–	–	–	–	–	–	–
